In ChEMBL document CHEMBL3044946, “Glyphosate resistance in perennial ryegrass (Lolium perenne L.) from Argentina” (2012):
The source made the active and inactive calls. No cut-off for these calls is given here.

Columns and labels:
Lolium perenne [1] = experiment: Resistance index, ratio of LD50 for glyphosate-resistant Lolium perenne (perennial ryegrass) to LD50 for glyphosate-susceptible Lolium perenne (perennial ryegrass) by germination inhibition study; format: functional
Lolium perenne [2] = experiment: Induction of shikimate accumulation in leaf lamina of glyphosate-susceptible Lolium perenne (perennial ryegrass) at 1440 g ae/ha measured 72 hr post compound application; format: functional, organism-based
Lolium perenne [3] = experiment: Induction of shikimate accumulation in leaf sheath of glyphosate-resistant Lolium perenne (perennial ryegrass) at 1440 g ae/ha measured 24 to 72 hr post compound application; format: functional, organism-based
Lolium perenne [4] = experiment: Resistance index, ratio of ED50 for glyphosate-resistant Lolium perenne (perennial ryegrass) to ED50 for glyphosate-susceptible Lolium perenne (perennial ryegrass) by plant survival inhibition study; format: functional
Lolium perenne [5] = experiment: Herbicidal activity against glyphosate-susceptible Lolium perenne (perennial ryegrass) assessed as inhibition of germination; format: functional
Lolium perenne [6] = experiment: Herbicidal activity against glyphosate-resistant Lolium perenne (perennial ryegrass) assessed as regrowth level of controlled plants at 1440 g ae/ha measured 30 days after compound application; format: functional
Lolium perenne [7] = experiment: Herbicidal activity against glyphosate-resistant Lolium perenne (perennial ryegrass) assessed as plant-regrowth at 360 g ae/ha measured 30 days after compound application; format: functional
Lolium perenne [8] = experiment: Herbicidal activity against glyphosate-resistant Lolium perenne (perennial ryegrass) assessed as inhibition of germination; format: functional
Lolium perenne [9] = experiment: Resistance index, ratio of GR50 for glyphosate-resistant Lolium perenne (perennial ryegrass) to GR50 for glyphosate-susceptible Lolium perenne (perennial ryegrass) by plumule growth inhibition study; format: functional
Lolium perenne [10] = experiment: Herbicidal activity against glyphosate-resistant Lolium perenne (perennial ryegrass) assessed as inhibition of plumule growth; format: functional
Lolium perenne [11] = experiment: Herbicidal activity against glyphosate-resistant Lolium perenne (perennial ryegrass) assessed as inhibition of plant survival measured after 15 days post compound application; format: functional
Lolium perenne [12] = experiment: Reduction in chlorophyll content in glyphosate-resistant Lolium perenne (perennial ryegrass) at 1000 to 3000 g ae/ha measured after 10 days post compound application; format: functional, organism-based
Lolium perenne [13] = experiment: Herbicidal activity against glyphosate-susceptible Lolium perenne (perennial ryegrass) assessed as inhibition of plumule growth; format: functional
Lolium perenne [14] = experiment: Herbicidal activity against glyphosate-resistant Lolium perenne (perennial ryegrass) assessed as regrowth level of controlled plants at 720 g ae/ha measured 30 days after compound application; format: functional
Lolium perenne [15] = experiment: Herbicidal activity against glyphosate-susceptible Lolium perenne (perennial ryegrass) assessed as inhibition of plant survival measured after 15 days post compound application; format: functional
Lolium perenne [16] = experiment: Herbicidal activity against glyphosate-resistant Lolium perenne (perennial ryegrass) assessed as regrowth level of controlled plants at 2880 g ae/ha measured 30 days after compound application; format: functional
Lolium perenne [17] = experiment: Induction of shikimate accumulation in leaf lamina of glyphosate-susceptible Lolium perenne (perennial ryegrass) at 1440 g ae/ha measured 24 hr post compound application; format: functional, organism-based
Lolium perenne [18] = experiment: Induction of shikimate accumulation in leaf sheath of glyphosate-susceptible Lolium perenne (perennial ryegrass) at 1440 g ae/ha measured 48 hr post compound application; format: functional, organism-based
Lolium perenne [19] = experiment: Herbicidal activity against glyphosate-resistant Lolium perenne (perennial ryegrass) assessed as plant-regrowth at 1440 g ae/ha measured 30 days after compound application; format: functional
Lolium perenne [20] = experiment: Reduction in chlorophyll content in glyphosate-susceptible Lolium perenne (perennial ryegrass) at 1000 to 3000 g ae/ha measured after 7 to 10 days post compound application; format: functional, organism-based
Lolium perenne [21] = experiment: Herbicidal activity against glyphosate-resistant Lolium perenne (perennial ryegrass) assessed as regrowth level of controlled plants at 360 g ae/ha measured 30 days after compound application; format: functional
Lolium perenne [22] = experiment: Induction of shikimate accumulation in leaf blade of glyphosate-resistant Lolium perenne (perennial ryegrass) at 1440 g ae/ha measured 24 to 72 hr post compound application; format: functional, organism-based
Lolium perenne [23] = experiment: Herbicidal activity against glyphosate-resistant Lolium perenne (perennial ryegrass) assessed as plant-regrowth at 720 g ae/ha measured 30 days after compound application; format: functional
Lolium perenne [24] = experiment: Induction of shikimate accumulation in leaf blades of glyphosate-susceptible Lolium perenne (perennial ryegrass) at 1440 g ae/ha measured 48 hr post compound application; format: functional, organism-based
Lolium perenne [25] = experiment: Herbicidal activity against glyphosate-resistant Lolium perenne (perennial ryegrass) assessed as plant-regrowth at 2880 g ae/ha measured 30 days after compound application; format: functional

In the case of `O=C(O)CNCP(=O)(O)O` [GLYPHOSATE], the Ratio (Lolium perenne [1]) is reported as 3.2, the Activity (Lolium perenne [2]) is reported as “Active” and the Activity (Lolium perenne [3]) is reported as “inactive”. For the same molecule, the Ratio (Lolium perenne [4]) was 10.8, the LD50 (Lolium perenne [5]) was 42 gAe/L and the Activity (Lolium perenne [6]) was 43%. The Activity (Lolium perenne [7]) was 6%, the LD50 (Lolium perenne [8]) was 138 gAe/L and the Ratio (Lolium perenne [9]) was 4.4. The GR50 (Lolium perenne [10]) was 41.5 gAe/L, the ED50 (Lolium perenne [11]) was 1495 gAe/L and the Activity (Lolium perenne [12]) was “inactive”. For the same molecule, the GR50 (Lolium perenne [13]) was 9.3 gAe/L, the Activity (Lolium perenne [14]) was 48% and the ED50 (Lolium perenne [15]) was 138.1 gAe/L. The Activity (Lolium perenne [16]) was 33%, the Activity (Lolium perenne [17]) was “Active” and the Activity (Lolium perenne [18]) was “Active”. The Activity (Lolium perenne [19]) was 23%, the Activity (Lolium perenne [20]) was “Active” and the Activity (Lolium perenne [21]) was 37%. For the same molecule, the Activity (Lolium perenne [22]) was “inactive”, the Activity (Lolium perenne [23]) was 17% and the Activity (Lolium perenne [24]) was “Active”. For the same molecule, the Activity (Lolium perenne [25]) was 25%.
